Test results from the supplement of paper PMC10307832.

Columns and labels:
Assay in all cases: relative viability (nuclei count vs DMSO), 5 days (fraction); higher = more cells survive
LU99A = test system: LU99A
Summary of the method: (§1)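 Each reported value is a median over duplicate plates. It expresses relative viability: treated-well nuclei count divided by vehicle-well nuclei count. Lung cancer cell lines in 1536-well plates were dosed by pin tool a day after seeding, alone with one drug or with a fixed anchor-drug dose plus five library-drug doses (not always all listed) in √10 steps, and nuclei were counted after 5 days.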

LXF-289 = test system: LXF-289
Summary of the method: as §1

HCC-78 = test system: HCC-78
Summary of the method: as §1

NCI-H23 = test system: NCI-H23
Summary of the method: as §1

SK-LU-1 = test system: SK-LU-1
Summary of the method: as §1

NCI-H322M = test system: NCI-H322M
Summary of the method: as §1

NCI-H2405 = test system: NCI-H2405
Summary of the method: as §1

HCC-827 = test system: HCC-827
Summary of the method: as §1

LCLC-103H = test system: LCLC-103H
Summary of the method: as §1

EKVX = test system: EKVX
Summary of the method: as §1

RERF-LC-KJ = test system: RERF-LC-KJ
Summary of the method: as §1

EMC-BAC-2 = test system: EMC-BAC-2
Summary of the method: as §1

NCI-H1563 = test system: NCI-H1563
Summary of the method: as §1

PC-14 = test system: PC-14
Summary of the method: as §1

SW 1573 = test system: SW 1573
Summary of the method: as §1

NCI-H1975 = test system: NCI-H1975
Summary of the method: as §1

NCI-H2126 = test system: NCI-H2126
Summary of the method: as §1

LK-2 = test system: LK-2
Summary of the method: as §1

NCI-H1666 = test system: NCI-H1666
Summary of the method: as §1

EPLC-272H = test system: EPLC-272H
Summary of the method: as §1

CCN(CC)CCCCNc1ncc2cc(-c3cc(OC)cc(OC)c3)c(NC(=O)NC(C)(C)C)nc2n1 + Cc1nc(NC(=O)N2CCC[C@H]2C(N)=O)sc1-c1ccnc(C(C)(C)C(F)(F)F)c1 [Alpelisib] (partner 2 µM)
relative viability (LU99A; first compound 0.01 µM): 0.5 | relative viability (LU99A; first compound 0.03162 µM): 0.523 | relative viability (LU99A; first compound 0.1 µM): 0.55 | relative viability (LU99A; first compound 0.3162 µM): 0.666 | relative viability (LU99A; first compound 1 µM): 0.575 | relative viability (LXF-289; first compound 0.01 µM): 1.07 | relative viability (LXF-289; first compound 0.03162 µM): 1.06 | relative viability (LXF-289; first compound 0.1 µM): 1.19 | relative viability (LXF-289; first compound 0.3162 µM): 1.02 | relative viability (LXF-289; first compound 1 µM): 0.971 | relative viability (HCC-78; first compound 0.03162 µM): 0.255 | relative viability (HCC-78; first compound 0.1 µM): 0.308 | relative viability (HCC-78; first compound 0.3162 µM): 0.348 | relative viability (HCC-78; first compound 1 µM): 0.303 | relative viability (NCI-H23; first compound 0.01 µM): 0.706 | relative viability (NCI-H23; first compound 0.03162 µM): 0.735 | relative viability (NCI-H23; first compound 0.1 µM): 0.851 | relative viability (NCI-H23; first compound 0.3162 µM): 0.653 | relative viability (NCI-H23; first compound 1 µM): 0.678 | relative viability (SK-LU-1; first compound 0.01 µM): 1.06 | relative viability (SK-LU-1; first compound 0.03162 µM): 1.08 | relative viability (SK-LU-1; first compound 0.1 µM): 1.18 | relative viability (SK-LU-1; first compound 0.3162 µM): 1.21 | relative viability (SK-LU-1; first compound 1 µM): 0.65 | relative viability (NCI-H322M; first compound 0.01 µM): 0.822 | relative viability (NCI-H322M; first compound 0.03162 µM): 0.782 | relative viability (NCI-H322M; first compound 0.1 µM): 0.77 | relative viability (NCI-H322M; first compound 0.3162 µM): 1.02 | relative viability (NCI-H322M; first compound 1 µM): 0.75 | relative viability (NCI-H2405; first compound 0.01 µM): 0.574 | relative viability (NCI-H2405; first compound 0.03162 µM): 0.709 | relative viability (NCI-H2405; first compound 0.1 µM): 0.814 | relative viability (NCI-H2405; first compound 0.3162 µM): 0.862 | relative viability (NCI-H2405; first compound 1 µM): 0.72 | relative viability (HCC-827; first compound 0.01 µM): 0.968 | relative viability (HCC-827; first compound 0.03162 µM): 0.967 | relative viability (HCC-827; first compound 0.1 µM): 1.02 | relative viability (HCC-827; first compound 0.3162 µM): 1.16 | relative viability (HCC-827; first compound 1 µM): 1.02 | relative viability (LCLC-103H; first compound 0.01 µM): 1.09 | relative viability (LCLC-103H; first compound 0.03162 µM): 0.967 | relative viability (LCLC-103H; first compound 0.1 µM): 0.975 | relative viability (LCLC-103H; first compound 0.3162 µM): 1.01 | relative viability (LCLC-103H; first compound 1 µM): 1.01 | relative viability (EKVX; first compound 0.01 µM): 0.818 | relative viability (EKVX; first compound 0.03162 µM): 0.898 | relative viability (EKVX; first compound 0.1 µM): 0.875 | relative viability (EKVX; first compound 0.3162 µM): 1.04 | relative viability (EKVX; first compound 1 µM): 0.893 | relative viability (RERF-LC-KJ; first compound 0.01 µM): 1.08 | relative viability (RERF-LC-KJ; first compound 0.03162 µM): 0.919 | relative viability (RERF-LC-KJ; first compound 0.1 µM): 0.925 | relative viability (RERF-LC-KJ; first compound 0.3162 µM): 0.951 | relative viability (RERF-LC-KJ; first compound 1 µM): 0.826 | relative viability (EMC-BAC-2; first compound 0.01 µM): 0.731 | relative viability (EMC-BAC-2; first compound 0.03162 µM): 0.798 | relative viability (EMC-BAC-2; first compound 0.1 µM): 0.811 | relative viability (EMC-BAC-2; first compound 0.3162 µM): 0.804 | relative viability (EMC-BAC-2; first compound 1 µM): 0.688 | relative viability (NCI-H1563; first compound 0.01 µM): 0.849 | relative viability (NCI-H1563; first compound 0.03162 µM): 0.96 | relative viability (NCI-H1563; first compound 0.1 µM): 0.896 | relative viability (NCI-H1563; first compound 0.3162 µM): 0.771 | relative viability (NCI-H1563; first compound 1 µM): 0.619 | relative viability (PC-14; first compound 0.01 µM): 1.02 | relative viability (PC-14; first compound 0.03162 µM): 1.08 | relative viability (PC-14; first compound 0.1 µM): 0.879 | relative viability (PC-14; first compound 0.3162 µM): 1.16 | relative viability (PC-14; first compound 1 µM): 0.943 | relative viability (SW 1573; first compound 0.01 µM): 0.727 | relative viability (SW 1573; first compound 0.03162 µM): 0.874 | relative viability (SW 1573; first compound 0.1 µM): 0.929 | relative viability (SW 1573; first compound 0.3162 µM): 0.796 | relative viability (SW 1573; first compound 1 µM): 0.782 | relative viability (NCI-H1975; first compound 0.01 µM): 0.699 | relative viability (NCI-H1975; first compound 0.03162 µM): 0.691 | relative viability (NCI-H1975; first compound 0.1 µM): 0.707 | relative viability (NCI-H1975; first compound 0.3162 µM): 0.787 | relative viability (NCI-H1975; first compound 1 µM): 0.451 | relative viability (NCI-H2126; first compound 0.01 µM): 0.736 | relative viability (NCI-H2126; first compound 0.03162 µM): 0.734 | relative viability (NCI-H2126; first compound 0.1 µM): 0.742 | relative viability (NCI-H2126; first compound 0.3162 µM): 0.815 | relative viability (NCI-H2126; first compound 1 µM): 0.75 | relative viability (LK-2; first compound 0.01 µM): 0.679 | relative viability (LK-2; first compound 0.03162 µM): 0.891 | relative viability (LK-2; first compound 0.1 µM): 0.848 | relative viability (LK-2; first compound 0.3162 µM): 0.6 | relative viability (LK-2; first compound 1 µM): 0.301 | relative viability (NCI-H1666; first compound 0.01 µM): 0.963 | relative viability (NCI-H1666; first compound 0.03162 µM): 0.889 | relative viability (NCI-H1666; first compound 0.1 µM): 1.02 | relative viability (NCI-H1666; first compound 0.3162 µM): 0.995 | relative viability (NCI-H1666; first compound 1 µM): 0.74 | relative viability (EPLC-272H; first compound 0.01 µM): 0.918 | relative viability (EPLC-272H; first compound 0.1 µM): 1.01 | relative viability (EPLC-272H; first compound 0.3162 µM): 1.07 | relative viability (EPLC-272H; first compound 1 µM): 0.883
